Tests used:
[1] = system: tau polyubiquitination; assay: NGF-induced tau polyubiquitination in PC12 cells (FIG. 13A); format: cell-based; conditions: control not shown
Protocol: (§1) The region spanning amino acids 225-251 is necessary for the interaction of p62 with TRAF6. The peptide containing TRAF6 binding motif in p62 along with the hydrophobic sequence containing the cell-permeable motif from Kaposi fibroblast growth factor sequence, […]-[…] (SEQ ID NO. 4) and control peptide […]-[…] (SEQ ID NO. 5) was synthesized. As a preliminary step, PC12 cells were pretreated with various concentrations of peptide for 5 h, followed by NGF stimulation for 15 min and immunoprecipitation with TRAF6 and western blotted with p62. […] The peptide was then tested for its ability to block NGF-induced tau polyubiquitination (FIG. 13A).

[2] = system: p62 aggregates in HEK cells; assay: p62 aggregate formation by confocal/fluorescence microscopy in transfected HEK cells; format: cell-based, Human
Protocol: Immunofluorescence staining—All steps were done at room temperature unless stated otherwise. The inclusion bodies were placed on poly-L-lysine coated 12 well slides (Cel-line/Erie Scientific Co., Portmouth, N.H.) and let partially dry. Inclusion bodies on the slides were fixed for 10 min in 3% paraformaldehyde (Electron Microscopy Sciences, Fort Washington, Pa.) and permeabilized with 0.1% Triton X-100 in PBS for 15 minutes. The inclusion bodies were incubated in blocking buffer (3% non fat dry milk in PBS) for 1 h, prior to incubation with primary antibodies at 4° C. overnight. After washing with PBS, the secondary antibody (Molecular Probes Inc., Eugene, Oreg.) in blocking buffer was applied for 1 h. After extensive washing in PBS, the samples were mounted using Vectashield (Vector Laboratories Inc., Burlingame, Calif.). The cells were fixed with 3% paraformaldehyde and processed similar to that of inclusion staining.
Cells were incubated with rabbit anti-myc IgG or mouse anti-HA IgG and labeled with Texas Red-conjugated anti-rabbit antibodies (red) or Oregon Green-conjugated anti-mouse antibodies (green), respectively. Merged images with overlapping immunoreactivity are shown in yellow. Note that cells expressing p62 lacking its UBA domain (p62ΔUBA) fail to form aggregates or to colocalize with ubiquitin. All experiments were replicated three independent times with similar results. Small aggregates of p62 colocalized with ubiquitin which was dependant upon the presence of a UBA domain but not the N-terminal portion of p62. Aggregation may impair the proteasome or, alternatively, impaired proteasome activity may seed aggregates. Alternatively, impairment of the proteasome may enhance the formation of p62 aggregates containing polyubiquitin.
In summary, through its UBA domain, p62 Interacts with polyubiquitinated substrates, and the UBA domain is necessary for aggregate formation.
Since TRAF6 localized to the large aggregates along with polyubiquitin (FIG. 2B), these aggregates may represent the failed attempt of the cell to rid itself of TRAF6-K63-polyubiquitinated substrates sequestered through interaction with the UBA domain. […] Altogether, these findings reveal that p62 binds proteins with K63 chains through its UBA domain and that p62 aggregates sequester TRAF6 as well as K63-polyubiquitinated substrates.
To further determine if the coassociation of tau-p62-TRAF6 and UbcH7 could be recapitulated in vitro, a cotransfection approach was undertaken. […] HEK cells were transfected with GFP-p62 followed by treatment or not with Aβ1-42 and Aβ42-1 peptides. […] This is consistent with the observation that microtubule dependent transport is important for the formation of p62 inclusions as assessed by treatment of the cells with nocodazole, a microtubule disrupting agent (9).

[3] = target: T1, interaction of p62 with TRAF6 (Rattus norvegicus, UniProt B5DF45); assay: TRAF6 immunoprecipitation and Western blot for p62/UbcH7 in NGF-stimulated PC12 cells; format: cell-based; conditions: NGF 15 min
T1 construct: followed by NGF stimulation for 15 min and immunoprecipitation of TRAF6 followed by Western blotting for p62; endogenous in cells; host or cells: PC12
T1 sequence (B5DF45 whole entry): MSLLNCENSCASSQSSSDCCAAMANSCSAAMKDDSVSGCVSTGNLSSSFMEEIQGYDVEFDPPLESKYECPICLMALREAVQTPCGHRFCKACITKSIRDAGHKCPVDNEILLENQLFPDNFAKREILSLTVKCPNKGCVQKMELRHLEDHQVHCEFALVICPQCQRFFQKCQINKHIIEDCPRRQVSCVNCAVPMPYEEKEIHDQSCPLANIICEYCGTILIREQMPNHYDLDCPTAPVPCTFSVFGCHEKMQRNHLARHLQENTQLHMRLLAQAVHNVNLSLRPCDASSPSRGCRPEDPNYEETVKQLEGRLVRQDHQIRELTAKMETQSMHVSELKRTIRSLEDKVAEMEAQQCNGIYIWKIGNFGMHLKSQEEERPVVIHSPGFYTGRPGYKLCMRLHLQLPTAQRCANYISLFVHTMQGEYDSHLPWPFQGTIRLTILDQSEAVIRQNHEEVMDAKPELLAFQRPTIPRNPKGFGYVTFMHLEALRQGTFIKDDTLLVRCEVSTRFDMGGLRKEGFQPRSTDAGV
T1 sequence (D3Z8W5 1-154 partner): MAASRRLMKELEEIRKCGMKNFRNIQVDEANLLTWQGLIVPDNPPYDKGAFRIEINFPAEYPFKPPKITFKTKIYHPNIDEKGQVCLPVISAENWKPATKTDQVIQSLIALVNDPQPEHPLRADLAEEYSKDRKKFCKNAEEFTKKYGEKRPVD
Protocol: Immunoprecipitation and Western blotting—Each mg of lysate/inclusion bodies was incubated with 41 ng of primary antibody at 4° C. for 3 h and then with 50 μl of 50% agarose-coupled secondary antibody for 2 more hours at 4 C. The beads were washed three times with lysis buffer, eluted by adding SDS-PAGE sample buffer, and subjected to SDS-PAGE in 7.5-12% acrylamide gels. Immunoblotting was performed on nitrocellulose membranes and analyzed by western blotting with ECL detection reagents (Amersham Biosciences).
as §1
The peptide containing the TRAF6-binding motif in p62 along with the hydrophobic sequence containing the cell-permeable motif from Kaposi fibroblast growth factor signal sequence […]-[…] (SEQ ID NO. 4) and control peptide […]-[…] (SEQ ID NO. 5) was synthesized. As a preliminary step, PC12 cells were pretreated with different concentrations (75-300 μM) of TRAF6 peptide for 5 hours followed by NGF stimulation for 15 min and immunoprecipitation of TRAF6 followed by Western blotting for p62. […] To address whether TRAF6 peptide affects the interaction of p62 and UbcH7 with TRAF6, PC12 cells were treated with or without 150 μM of control peptide or TRAF6 peptide for 5 hours and then stimulated with NGF for 15 min. By immunoprecipitating TRAF6, TRAF6 peptide (150 μM) abrogated the interaction of p62 with TRAF6, but not UbcH7, upon NGF treatment (FIG. 8A). […] The ability of the TRAF6 peptide to impair the ubiquitination process was investigated. Lysates recovered from NGF treated cells were immunoprecipitated with TrkA receptor antibody and blotted for ubiquitin or the receptor (FIG. 15B). […] The ability of the peptide to interrupt the formation of the functional TrkA-p62-TRAF6-UbcH7 complex on NGF stimulation as well was also investigated. TrkA was immunoprecipitated and blotted for the presence of each protein in the complex (FIG. 15C).

[4] = system: internalization of NGF by PC12 cells; assay: Internalization of NGF, 125I-NGF binding assay in PC12 cells (FIG. 15D); format: cell-based; conditions: PC12 cells pretreated with peptide (150 μM); control not shown
Protocol: Additionally, PC12 cells were pretreated or not with TRAF6 peptide (150 μM) followed by measurement of internalized receptor employing 125I-NGF binding assay (FIG. 15D). […] Similarly, the level of internalized NGF was measured in PC12 cells transfected with wild-type ubiquitin, K48R or K63R ubiquitin mutants (FIG. 15E). Transfection of ubiquitin, or K48R mutant was without any effect on internalization of NGF. By comparison, transfection of K63R ubiquitin mutant totally abrogated internalization of the ligand. […] Thus, p62 serves as an adaptor, as well as, a scaffold for TRAF6-directed ubiquitination and K63 chains play a signaling role for internalization and sorting of the receptor.

AAVALLPAVLLALLAP-ESASGPSEDPSVNFLK (AAVALLPAVLLALLAPESASGPSEDPSVNFLK; artificial sequence for cell permeable peptide) [TRAF6 peptide]
NGF-induced tau polyubiquitination [1]: completely abrogated | reduction in the formation of large aggregates ([2]; pretreatment with inhibitory dose of peptide prior to ALLN, GFP-p62 HEK cells): 60% | effect on size of the p62 aggregates ([2]; pretreatment with peptide prior to ALLN (FIG. 2D), control peptide data not shown): decrease in the size of the p62 aggregates | interaction of UbcH7 with TRAF6 ([3]; 150 μM peptide 5 hours): not | interaction of p62 with TRAF6 ([3]; 150 μM peptide 5 hours): completely abrogated | optimum dose to block the interaction of p62 with TRAF6 ([3]; 75-300 μM peptide 5 hours, not shown): 150 µM | concentration of peptide found to block TRAF6 interaction with p62 ([3]; peptide 5 h, not shown): One hundred and fifty | internalization of NGF [4]: significantly blocked
